This note sets out measurements from patent US20240208904A1, “CRYSTALLINE POTASSIUM SALT OF 1-ETHYL- N -((1,2,3,5,6,7-HEXAHYDRO- S -INDACEN-4-YL)CARBAMOYL)PIPERIDINE-4 -SULFONAMIDE” (Hoffmann-La Roche Inc., priority 2021, published 2024).

Molecules are shown by their SMILES. “Also recorded” adds a separate entry of the source.

The conditions of series [1]: for Limit solubilities after 48 h at 20° C.; measured by Q 1H NMR: 4-aminoindacene (level of hydrolytic precursor measured in solution): 50 mg/ml.
Method: (§1) Crystalline 1-ethyl-N-((1,2,3,5,6,7-hexahydro-s-indacen-4-yl)carbamoyl)piperidine-4-sulfonamide salts (50 mg, 1 wt.) or crystalline 1-ethyl-N-((1,2,3,5,6,7-hexahydro-s-indacen-4-yl)carbamoyl)piperidine-4-sulfonamide free acid (as a control) (50 mg, 1 wt.) were stirred in purified water (1000 μl, 20 vol.) at 20° C. Limit solubilities (mg/ml) were determined after 48 hours at 20° C. measured by Q ^1H NMR (measured against an internal standard, 2,3,5,6-tetrachloronitrobenzene).
Series [2] is described as follows: Solubility determinations: limit solubility in purified water by Q 1H NMR.
Method: as §1
The nature of series [3]: Competitive suspension equilibration of Form A and Form D in anhydrous acetonitrile. Format: physicochemical. The following applies: versus Form D, 20° C. or 40° C., 96 hours. The method, then:
Form A (50 mg, 1 wt.) and Form D (amounts see Table 16) were charged to a vial and anhydrous acetonitrile (1000 μl, 20 vol.) was added. The vials were stirred at 20° C. or 40° C.for 96 hours.

Series [4] can be described thus: Mechanical grinding of Form A, XRPD analysis. The format is physicochemical. The following applies: ground for 24 hours. How it is done: Form A (50.4 mg) was ground for 24 hours. The product was recovered and analysed by XRPD to determine if any phase changes had occurred.
The nature of series [5]: Water content / hygroscopicity of polymorphs. The format is physicochemical.
A short description of series [6]: General assessment of polymorph solubility and stability to water/humidity. Format: physicochemical.

`CCN1CCC(S(=O)(=O)NC(=O)Nc2c3c(cc4c2CCC4)CCC3)CC1` [Form 3A, 1-ethyl-N-((1,2,3,5,6,7-hexahydro-s-indacen-4-yl)carbamoyl)piperidine-4-sulfonamide]: in series [1], the “Limit solubilities after 48 h at 20° C.; measured by Q 1H NMR: Free acid form equivalent” value (“Limit solubilities … Free acid form equivalent” for short) was 38.0 mg/mL and the “Limit solubilities after 48 h at 20° C.; measured by Q 1H NMR: 4-aminoindacene (level of hydrolytic precursor measured in solution)” value stood at 0.0 mg/mL.

Turning to `CCN1CCC(S(=O)(=O)NC(=O)Nc2c3c(cc4c2CCC4)CCC3)CC1` [Form 3B, 1-ethyl-N-((1,2,3,5,6,7-hexahydro-s-indacen-4-yl)carbamoyl)piperidine-4-sulfonamide], in series [1], the “Limit solubilities … Free acid form equivalent” value was determined as 6.3 mg/mL and the “Limit solubilities after 48 h at 20° C.; measured by Q 1H NMR: 4-aminoindacene (level of hydrolytic precursor measured in solution)” value stood at 0.0 mg/mL.

As for `CCN1CCC(S(=O)(=O)NC(=O)Nc2c3c(cc4c2CCC4)CCC3)CC1` [Form 3C, 1-ethyl-N-((1,2,3,5,6,7-hexahydro-s-indacen-4-yl)carbamoyl)piperidine-4-sulfonamide], in series [1], the “Limit solubilities … Free acid form equivalent” value stood at 4.5 mg/mL and the “Limit solubilities after 48 h at 20° C.; measured by Q 1H NMR: 4-aminoindacene (level of hydrolytic precursor measured in solution)” value came to 2.6 mg/mL.

Turning to `CCN1CCC(S(=O)(=O)NC(=O)Nc2c3c(cc4c2CCC4)CCC3)CC1` [Form 3D, 1-ethyl-N-((1,2,3,5,6,7-hexahydro-s-indacen-4-yl)carbamoyl)piperidine-4-sulfonamide], in series [2] (purified water, 20 °C, water, thermodynamic from solid, Limit solubilities after 48 h at 20° C., measured by Q 1H NMR: Free acid form equivalent, 50 mg in purified water 1000 μl (20 vol.), 20° C., 48 h), the solubility at 48 h came out at 3900 µg/mL. The “Observation at 18 hours” value in series [2] (stirred in purified water (20 vol.) at 20° C., 18 hours) was “suspension”.

Take `CCN1CCC(S(=O)(=O)NC(=O)Nc2c3c(cc4c2CCC4)CCC3)CC1` [Form 3E, 1-ethyl-N-((1,2,3,5,6,7-hexahydro-s-indacen-4-yl)carbamoyl)piperidine-4-sulfonamide]: in series [1], the “Limit solubilities … Free acid form equivalent” value was 3.3 mg/mL and the “Limit solubilities after 48 h at 20° C.; measured by Q 1H NMR: 4-aminoindacene (level of hydrolytic precursor measured in solution)” value was 0.8 mg/mL.

In the case of `CCN1CCC(S(=O)(=O)NC(=O)Nc2c3c(cc4c2CCC4)CCC3)CC1` [Form 3F, 1-ethyl-N-((1,2,3,5,6,7-hexahydro-s-indacen-4-yl)carbamoyl)piperidine-4-sulfonamide], in series [1], the “Limit solubilities … Free acid form equivalent” value amounted to 2.1 mg/mL and the “Limit solubilities after 48 h at 20° C.; measured by Q 1H NMR: 4-aminoindacene (level of hydrolytic precursor measured in solution)” value is 0.8 mg/mL.

For `CCN1CCC(S(=O)(=O)NC(=O)Nc2c3c(cc4c2CCC4)CCC3)CC1` [Form 3G, 1-ethyl-N-((1,2,3,5,6,7-hexahydro-s-indacen-4-yl)carbamoyl)piperidine-4-sulfonamide], in series [1], the “Limit solubilities … Free acid form equivalent” value amounted to 1.5 mg/mL and the “Limit solubilities after 48 h at 20° C.; measured by Q 1H NMR: 4-aminoindacene (level of hydrolytic precursor measured in solution)” value worked out at 0.5 mg/mL.

Regarding `CCN1CCC(S(=O)(=O)NC(=O)Nc2c3c(cc4c2CCC4)CCC3)CC1` [Form 3H, 1-ethyl-N-((1,2,3,5,6,7-hexahydro-s-indacen-4-yl)carbamoyl)piperidine-4-sulfonamide], in series [1], the “Limit solubilities … Free acid form equivalent” value was 0.6 mg/mL and the “Limit solubilities after 48 h at 20° C.; measured by Q 1H NMR: 4-aminoindacene (level of hydrolytic precursor measured in solution)” value came to 0.0 mg/mL.

For the molecule `CCN1CCC(S(=O)(=O)NC(=O)Nc2c3c(cc4c2CCC4)CCC3)CC1` [Form 3I, 1-ethyl-N-((1,2,3,5,6,7-hexahydro-s-indacen-4-yl)carbamoyl)piperidine-4-sulfonamide], in series [1], the “Limit solubilities … Free acid form equivalent” value is 0.3 mg/mL and the “Limit solubilities after 48 h at 20° C.; measured by Q 1H NMR: 4-aminoindacene (level of hydrolytic precursor measured in solution)” value was 0.0 mg/mL.

For `CCN1CCC(S(=O)(=O)NC(=O)Nc2c3c(cc4c2CCC4)CCC3)CC1` [Form 3J, 1-ethyl-N-((1,2,3,5,6,7-hexahydro-s-indacen-4-yl)carbamoyl)piperidine-4-sulfonamide], in series [1], the “Limit solubilities … Free acid form equivalent” value was 0.0 mg/mL and the “Limit solubilities after 48 h at 20° C.; measured by Q 1H NMR: 4-aminoindacene (level of hydrolytic precursor measured in solution)” value turned out to be 0.1 mg/mL.

Regarding `CCN1CCC(S(=O)(=O)NC(=O)Nc2c3c(cc4c2CCC4)CCC3)CC1.[K]` [Form A, 1-Ethyl-N-((1,2,3,5,6,7-hexahydro-s-indacen-4-yl)carbamoyl)piperidine-4-sulfonamide Monopotassium Form A], the “Thermodynamic stability of polymorphic form” value in series [3] was “more thermodynamically stable polymorphic form; also recorded: thermodynamically stable”. The “Phase change after grinding (XRPD)” value in series [4] is “no significant change of polymorphic form; also recorded: stable to prolonged grinding conditions”. Besides, the Hygroscopicity entry in series [5] is recorded as “hygroscopic”. In series [5] (depends on preparation and storage conditions), the Non-assimilated water observed result is recorded as “up to 3%”. In addition, the “Solubility (qualitative)” value in series [6] is reported as “good solubility”.

On to `CCN1CCC(S(=O)(=O)NC(=O)Nc2c3c(cc4c2CCC4)CCC3)CC1.[K]` [Form D, 1-Ethyl-N-((1,2,3,5,6,7-hexahydro-s-indacen-4-yl)carbamoyl)piperidine-4-sulfonamide Monopotassium Form D], for which, in series [6] (water as solvent or co-solvent or humidity (such as >30% RH at 25° C.)), the “Stability in the presence of water” value is given as “stable in the presence of water”.

The solubility is the dissolved amount per volume that the medium holds.
